The record followed here is patent publication US10336734B2, “Inhibitors of ACK1/TNK2 tyrosine kinase” (H. LEE MOFFITT CANCER CENTER AND RESEARCH INSTITUTE, INC., priority 2015, dated 2019).

For data set [1], the system named is LNCaP-caAck xenograft tumors. Kind of data set: LNCaP-caAck xenograft in castrated SCID mice. The format is in vivo. The settings on record: 50 mg/kg, 6 days a week for four weeks. As for the experimental part: FIG. 9. ACK1 inhibitor (R)-9bMS suppresses xenograft tumor growth in castrated mice. Male SCID mice were castrated and injected with LNCaP-caAck cells. Once mice formed palpable tumors, mice were injected with vehicle (10% DMSO in PBS) or (R)-9bMS (50 mg/kg of body) for 6 days a week for four weeks (n=7 mice for each treatment). Tumor volumes were measured.

Data set [2] deals with pY88-H4 epigenetic marks upstream of AR gene. Kind of data set: ChIP-qPCR at AREM1-3 sites in C4-2B cells. The class given is cell-based. An excerpt:
FIG. 5A through 5J. AR transcription is regulated by epigenetic modification of histone H4 at tyrosine 88 is sensitized byc(R)-9bMS. FIG. 5A through 5D show ChIP with pY88-H4 antibodies, followed by qPCR using primers corresponding to AREM1-3 and control (gene desert) sites of C4-2B cells treated with (R)-9bMS. Data represent mean±s.e.m. (n=3) from one of three independent experiments. **p<0.01. […] Data represent mean±s.e.m. (n=3) from one of three independent experiments. *p<0.05, **p<0.01. FIGS. 5F and 5G show ChIP with pY88-H4 antibodies, followed by qPCR using primers corresponding to AREM2 and AREM1 site of C4-2B cells transfected with ACK1, AR and control siRNA. Data represent mean±s.e.m. (n=3) from one of three independent experiments. *p<0.05, **p<0.01. […] Data represent mean±s.e.m. (n=3) from one of three independent experiments. *p<0.05. FIGS. 5I and 5J show qRT-PCR analysis of AR and PSA in LAPC4 cells transfected with FLAG-tagged H4 or Y88F mutant H4 expressing constructs. Data represent mean±s.e.m. (n=3) from one of three independent experiments.*p<0.05, **p<0.01.
FIG. 6A through 6F. Recruitment of the MLL2/WDR5 complex and deposition of H3K4me3 epigenetic marks upstream of the AR gen can be erased by (R)-9bMS. […]
On the technique in general: In qPCR the cycle at which signal appears reflects the starting amount.

Data set [3] has as its system PC cells. Put plainly: Cell cycle and apoptosis of PC cells. The class given is cell-based. An excerpt: (§1) FIG. 7A through 7F. (R)-9bMS overcome enzalutamide-resistance of CRPCs. […] Data represent mean±s.e.m. (n=3) from one of three independent experiments. […] Data represent mean±s.e.m. (n=3) from one of three independent experiments. […] Data represent mean±standard error of the mean (s.e.m.) (n=3) from one of three independent experiments.*p<0.05. […] Cell cycle analysis of prostate cell lines treated with (R)-9bMS (24 hr).
(§2) To investigate the anti-tumor activity of ACK1 inhibitor, we first analyzed the ability (R)-9bMS to suppress proliferation of PC cell lines.

Data set [4] deals with LNCaP. Kind of data set: Cell viability/proliferation of PC cell lines, LNCaP. The class given is cell-based. The settings on record: 96 hr, read-out: IC50, suppression of proliferation.
Description: as §1, §2

Data set [5] has as its system AR-V7. Kind of data set: AR-V7 mRNA (qRT-PCR) and variant protein (immunoblot) in PC cells. The format is cell-based. The conditions noted are these: VCaP 3.5 μM, 16 hr; VCaP and LAPC4 immunoblot. The source says: FIG. 1A through 1F. Inhibition of ACK1 kinase activity by (R)-9bMS (DZ1-067 mesylate salt) suppresses AR and AR-V7 expression. […] Data represent mean±s.e.m. (n=3) from one of three independent experiments. *p<0.05. FIG. 1B and FIG. 1C show immunoblot analysis of androgen-deprived VCaP and LAPC4 cells treated with (R)-9bMS. […] FIG. 1E and FIG. 1F show qRT-PCR analysis of AR and PSA in PC3 cells transfected with caACK or kdACK constructs. Data represent mean±s.e.m. (n=3) from one of three independent experiments. **p<0.01.
We assessed AR-V7 mRNA levels upon treatment with (R)-9bMS (DZ1-067 mesylate salt).

Data set [6] concerns enzalutamide-resistant C4-2B cell line. Put plainly: Cell viability and AR expression, enzalutamide-resistant C4-2B cells. The class given is cell-based. An excerpt: FIG. 7A through 7F. […] Data represent mean±s.e.m. (n=3) from one of three independent experiments. […] Data represent mean±s.e.m. (n=3) from one of three independent experiments. […] Data represent mean±standard error of the mean (s.e.m.) (n=3) from one of three independent experiments.*p<0.05. […] Cell cycle analysis of prostate cell lines treated with (R)-9bMS (24 hr).

Data set [7] deals with LAPC4. Put plainly: Cell viability/proliferation of PC cell lines, LAPC4. The format is cell-based. The conditions noted are these: LAPC4, 96 hr; read-out: IC50, suppression of proliferation.
Description: as §1, §2

In data set [8] the test system is C4-2B xenograft tumors. Kind of data set: C4-2B CRPC xenograft in castrated SCID mice. The class given is in vivo. As for the experimental part:
FIG. 8A through 8F. (R)-9bMS mitigates CRPC tumor growth. […] Once formed palpable tumors, mice were injected with vehicle (10% DMSO in PBS) or (R)-9bMS (50 mg/kg of body) for 6 days a week for five weeks (n=9 mice for each treatment). Tumor volumes were measured. Data represent mean±s.e.m. […] Data represent mean±standard error of the mean (s.e.m.) (n=3) from one of three independent experiments. **p<0.01.
To investigate the effect of (R)-9bMS on CRPC xenograft tumor growth, C4-2B cells were implanted in castrated SCID mice.

The test system of data set [9] is VCaP. Put plainly: Cell viability/proliferation of PC cell lines, VCaP. The class given is cell-based. The settings on record: 96 hr, read-out: IC50, suppression of proliferation.
Description: as §1, §2

The test system of data set [10] is histone H4 Y88-phosphorylation. Kind of data set: Immunoblot of H4 Y88-phosphorylation in ligand-treated PC cells. The format is cell-based. The conditions noted are these: serum and androgen starved PC cells, ligand activated; 5 μM (DHT 10 nM). The method, then:
FIG. 2A through 2C. ACK1 inhibitor (R)-9bMS suppresses epigenetic modification of histone H4 at tyrosine 88.
To assess endogenous H4-phosphorylation, serum and androgen starved PC cells were treated with ligands to activate ACK1. It led to robust H4 Y88-phosphorylation, suppressed upon (R)-9bMS treatment (FIG. 2A). […] Moreover, H4 Y88-phosphorylation was also detected in human CRPCs using mass spectrometry, which was validated by immunoblotting (FIG. 3A-3C).
On the technique in general: In western blotting, separated proteins are transferred to a membrane and probed.

Data set [11] deals with C4-2B. Kind of data set: Cell viability/proliferation of PC cell lines, C4-2B. The format is cell-based. The conditions noted are these: 96 hr, read-out: IC50, suppression of proliferation.
Description: as §1, §2

Setting [12] is: 50 mg/kg, 6 days a week for five weeks.

On to `CN1CCN(c2ccc(Nc3ncc(Cl)c(NC[C@H]4CCCO4)n3)cc2)CC1` [(R)-9bMS], for which the Xenograft tumor growth entry in data set [1] was “displayed sensitivity”. Also, in data set [2] (ChIP real time PCR), the “pY88-H4 marks at AREM1-3 sites” value is “erased”. In addition, in data set [2] (absence of androgen), the “WDR5, MLL2, H3K4me3 methyl marks and RNA Pol II at AREM1-3 sites” value is on record as “significantly reduced”. In addition, the Cell cycle result in data set [3] (24 hr) is “arrest PC cells in G2 phase”. For the same compound, the Apoptosis entry in data set [3] (C4-2B cells) was “inducing apoptosis”. Also, the IC50 is 1800 nM in data set [4], 750 nM in data set [7], 450 nM in [9] and 400 nM in [11]. The “AR-V7 mRNA and variant protein levels” value in data set [5] is “significantly reduced”. Also, in [6] (enzalutamide-resistant C4-2B cells, 96 hr), the “Sensitivity of enzalutamide-resistant cells” value is recorded as “retained sensitivity”. In addition, in data set [6] (immunoblot), the “AR expression in enzalutamide-resistant cells” value is listed as “able to suppress AR expression”. Besides, the “Organ histology (H&E)” value in data set [8] (50 mg/kg) was “histologically normal”. Moreover, the body weights entry in data set [8] (50 mg/kg) was “no statistical difference”. Besides, the CRPC tumor growth entry in data set [8] (setting [12]) was “significant decrease”. Moreover, the tumor weight entry in data set [8] (setting [12]) is “significant decrease”. Besides, in data set [8] (qRT-PCR of xenograft tumors), the “AR, PSA & TMPRSS2 mRNAs levels in tumors” value was “significant reduction”. Besides, the “H4 Y88-phosphorylation” value in [10] was “suppressed”.
